Molecules are shown by their SMILES. Some results are limits rather than exact numbers.

As a reminder, the Ki is the dissociation constant of the complex between target and ligand, obtained from inhibition or displacement. Low values mean higher affinity, high ones lower affinity. Usually IC50 stands for the concentration that gives 50% inhibition.

In test [1] the target is T1, 5-hydroxytryptamine receptor 2C (Homo sapiens, UniProt P28335).
T1 sequence (P28335 whole entry): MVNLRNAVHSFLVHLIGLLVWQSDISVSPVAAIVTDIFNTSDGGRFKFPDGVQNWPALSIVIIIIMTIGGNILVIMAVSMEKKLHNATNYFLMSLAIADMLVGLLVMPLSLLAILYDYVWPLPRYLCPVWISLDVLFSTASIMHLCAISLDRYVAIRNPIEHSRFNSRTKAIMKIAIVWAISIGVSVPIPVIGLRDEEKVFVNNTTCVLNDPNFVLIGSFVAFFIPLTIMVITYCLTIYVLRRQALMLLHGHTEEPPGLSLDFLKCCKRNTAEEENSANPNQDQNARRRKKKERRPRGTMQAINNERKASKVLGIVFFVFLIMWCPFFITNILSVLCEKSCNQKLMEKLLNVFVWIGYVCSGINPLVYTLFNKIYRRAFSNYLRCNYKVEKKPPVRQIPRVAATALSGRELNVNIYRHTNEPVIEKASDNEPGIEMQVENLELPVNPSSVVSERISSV
Nature of the test: Binding affinity to 5-HT2C receptor.

Test [2] deals with T1, 5-hydroxytryptamine receptor 2C. Put plainly: Displacement of [3H]Mesulergine from human recombinant serotonin 5-HT2C expressed in CHO-K1 cells. The format is cell-based.

`C[C@@H]1CNC[C@H]2Cc3ccc(COCC4CC4)nc3N21`: the Ki in test [1] was 0.004 µM. That is a single-digit nanomolar value.
Still for that read-out and setting: under `O=C1Nc2cc(Cl)c(Cl)cc2N2CCNC[C@H]12` stands 0.0033 µM.
In turn, `Clc1ccc(Cl)c(-c2ccnc(N3C[C@@H]4CCN[C@@H]4C3)n2)c1` had a Ki in test [1] above 20 µM.
Same read-out and setting: the figure for `Clc1cccc(COc2cncc(N3CCNCC3)n2)c1` is 0.001 µM.
With `Cc1ccccc1NC(=O)N1CCN2CCCCC2C1` (configuration not stated), the IC50 in test [2] was above 10 µM.
The same measure, in the same setting: the figure for `CCC(=O)Nc1nn2c(-c3cccc(C)c3)nnc2s1` is 9.22 µM; for `Cc1ccc(C2=NC3(CCNCC3)NC2=O)cc1C` it is above 10 µM.
For `CN(C)CCNC(=O)c1nc(-c2cccnc2)no1`, in test [2], the IC50 is above 10 µM.
The same measure, in the same setting: under `Cn1c(=O)n(C)c2cc(CNCCN3CCOCC3)ccc21` stands above 10 µM; under `CCc1nnc2c(NCCC3=CCCCC3)nc3ccccc3n12`, above 10 µM.
Same read-out and setting: the figure for `Cc1cccc(CN2CCNC(=O)C2CC(=O)O)c1` (configuration not stated) is above 10 µM.
Still for that read-out and setting: the figure for `CCn1ncc(C2=NOC(C(=O)NCCN3CCOCC3)C2)c1C` (configuration not stated) is above 10 µM.
In test [1], `C[C@@H]1CN(c2ccc(C(F)(F)F)c3ccoc23)CCN1` came in with a Ki of 0.0024 µM.
Turning to `CC(=O)N(CCN(C)C)c1nc2cc3c(cc2s1)OCO3`, the half-inhibitory concentration (IC50) in test [2] was 2.73 µM.
In test [1], `Fc1cccc(F)c1-c1cc2c3c(c1)[C@H]1CNCC[C@H]1N3CCCS2` had an inhibition constant (Ki) of 0.0052 µM.
As for `Cn1ncc2c(Nc3ccc(F)cc3)nc(NCCN3CCOCC3)nc21`, in test [2], the IC50 is above 10 µM.
On the same count and under the same terms, under `COC(=O)c1cnn2c(O)nc(C3CCNCC3)nc12` stands 0.589 µM; under `COc1ccc2c3c([nH]c2c1)[C@@](C)(C(=O)O)NCC3`, above 10 µM; under `CCc1ccccc1NC(=O)CC1NCCNC1=O` (configuration not stated), above 10 µM.
Still for that read-out and setting: under `CN(C)CCNC(=O)c1ccc(-n2ccc3ccccc32)s1` stands 0.222 µM; under `CCCNc1nc(Nc2ccccc2)c2cnn(C)c2n1`, above 10 µM; under `CCOC(=O)C1=CCc2nc(C)nc(NCCN(C)C)c21`, 4.48 µM.
Same read-out and setting: under `CCNc1nc(Nc2ccc(F)cc2)c2cnn(C)c2n1` stands above 10 µM; under `CC(=O)N(CCN(C)C)c1nc2c(F)cccc2s1`, 2 µM.
Consider `CN1CCN(CCNC(=O)c2cc3ccc4cccnc4c3[nH]2)CC1`, for which, in test [2], the IC50 is above 10 µM.
Still for that read-out and setting: the figure for `COCCNc1nc(Nc2ccc(F)cc2)c2cnn(C)c2n1` is above 10 µM; for `CCN1Cc2cccc(CNc3ccc(C)c(F)c3)c2C1` it is 5.63 µM; for `COCCCNc1nc(Nc2ccc(F)cc2)c2cnn(C)c2n1` it is above 10 µM.
On the same count and under the same terms, the figure for `C=CCNc1nc(Nc2ccc(F)cc2)c2cnn(C)c2n1` is above 10 µM; for `Cn1ncc2c(Nc3ccc(F)cc3)nc(NC3CCCC3)nc21` it is above 10 µM; for `CCCNc1nc2ccc(C)cc2n2nnnc12` it is above 10 µM.
Same read-out and setting: under `Cc1noc2ncnc(NCCN3CCOCC3)c12` stands above 10 µM; under `Cc1ccc(NC(=O)N2CCN3CCCCC3C2)cc1C` (configuration not stated), above 10 µM.
`C[C@@H](N)Cn1ccc2cc(F)c(Cl)cc21` came in with an inhibition constant Ki in test [1] of 0.001 µM.
Turning to `Cc1ccc(CCNc2nc3ccc(C)cc3n3nnnc23)cc1`, in test [2], the IC50 was above 10 µM.
Same read-out and setting: the figure for `CC(=O)Nc1c(C(=O)N2CCN(C)CC2)oc2ccccc12` is 5.29 µM; for `CCOC(=O)c1noc2ncnc(N3CCN(C)CC3)c12` it is 2.05 µM.
As to `CCc1cc2c(ccc3cnn(C[C@@H](C)N)c32)o1`, the affinity in test [1] corresponds to a Ki of 0.00089 µM.
On to `CCN(CC)CCn1c(NCc2ccncc2)nc2ccccc21`, for which the IC50 in test [2] was above 10 µM.
Still for that read-out and setting: the figure for `CCCCN(C)CCNc1nc(C)nc2oc(C)c(C(=O)OCC)c12` is 4.17 µM; for `Cc1cccc(C(=O)Nc2nn3c(-c4ccccc4C)nnc3s2)c1` it is above 10 µM.
Same read-out and setting: the figure for `Cc1noc(C(=O)NCCN2CCOCC2)c1Cl` is above 10 µM; for `CCOC(=O)c1c(C)oc2ncnc(NCCN3CCOCC3)c12` it is above 10 µM.
The same measure, in the same setting: under `Cc1ccc2onc(CNC(=O)N3CCN(C)CC3)c2c1` stands 8.93 µM.
For `Cc1nnc(SCc2cc(=O)n3nc(C4CC4)sc3n2)[nH]1`, in test [2], the IC50 is above 10 µM.
On the same count and under the same terms, under `CC1CCCCN1CCNC(=O)c1noc2c1CCc1sccc1-2` (configuration not stated) stands above 10 µM; under `Cn1ncc2c(Nc3ccc(F)cc3)nc(NCCCO)nc21`, above 10 µM; under `CN(C)CCNC(=O)c1cc2ccccc2[nH]1`, 0.424 µM.
The same measure, in the same setting: the figure for `COc1cc2c(cc1OC)C1CCCN1C(C)(C)C2` (configuration not stated) is above 10 µM; for `Cc1cc(C(=O)NCCN2CCOCC2)on1` it is above 10 µM.
Same read-out and setting: the figure for `CCNc1nc(Nc2ccccc2)c2cnn(C)c2n1` is above 10 µM.
For the compound `CCc1nnc2c(NC)nc3ccccc3n12`, the IC50 in test [2] came out at 5.11 µM.

The record behind these values is ChEMBL document CHEMBL1154058, “Identification of novel serotonin 2C receptor ligands by sequential virtual screening” (Bioorg Med Chem, 2009).
